The values below come from publication PMC12524408 (International Journal of Molecular Sciences, 2025).

One data set concerns DSS-induced colitis. The settings on record: cited from earlier work; for Therapeutic effect in colitis: 25 nmol/kg subcutaneously, previous studies. How it is done: Nevertheless, the 25 nmol/kg dose was selected for further evaluation (Figure 5). […] The in vivo pharmacological studies were conducted by a contract research organization (CRO), LSI Medience Ltd. (Kumamoto, Japan), and were not in an academic setting. Although the studies were conducted professionally, a blinded evaluation was not implemented, which may have introduced bias. Additionally, histological analysis of the colonic tissue was not performed. […] Future pharmacologi ...

Data set [1] is described as follows: Stability (degradation) in human serum. It is filed as in vitro ADME. Conditions: pooled human serum, 100 μL in 200 μL (10 mM NaH2PO4 pH 7.1, 100 mM NaCl), 37 °C, 60 min; fluorescence immunoassay; mean, n = 3; read-out: % remaining in human serum after 60 min. The text has this: Error bars are shorter than the symbol size.

No end group written: not given here.

The term share remaining denotes the share of the starting amount still present when the sample was taken.

As for “60 kDa PEGylated AM ({PEG 60 kDa}-YRQSMNNFQGLRSFGCRFGTCTVQKLAHQIYQFTDKDKDNVAPRSKISPQGY; ends and bridges not checked; UniProt P35318 95-146, looked up) [60 k PEG-AM]”, in the data set with DSS-induced colitis, the “Therapeutic effect in colitis” value is on record as “significant therapeutic effects”.
For the compound `CC[C@H](C)[C@H](NC(=O)[C@H](CCC(N)=O)NC(=O)[C@H](Cc1c[nH]cn1)NC(=O)[C@H](C)NC(=O)[C@H](CC(C)C)NC(=O)[C@H](CCCCN)NC(=O)[C@H](CCC(N)=O)NC(=O)[C@@H](NC(=O)[C@@H](NC(=O)[C@@H]1CSSC[C@H](NC(=O)CNC(=O)[C@H](Cc2ccccc2)NC(=O)[C@H](CO)NC(=O)[C@H](CCCNC(=N)N)NC(=O)[C@H](CC(C)C)NC(=O)CNC(=O)[C@H](CCC(N)=O)NC(=O)[C@H](Cc2ccccc2)NC(=O)[C@H](CC(N)=O)NC(=O)[C@H](CC(N)=O)NC(=O)[C@H](CCSC)NC(=O)[C@H](CO)NC(=O)[C@H](CCC(N)=O)NC(=O)[C@H](CCCNC(=N)N)NC(=O)[C@@H](N)Cc2ccc(O)cc2)C(=O)N[C@@H](CCCNC(=N)N)C(=O)N[C@@H](Cc2ccccc2)C(=O)NCC(=O)N[C@@H]([C@@H](C)O)C(=O)N1)[C@@H](C)O)C(C)C)C(=O)N[C@@H](Cc1ccc(O)cc1)C(=O)N[C@@H](CCC(N)=O)C(=O)N[C@@H](Cc1ccccc1)C(=O)N[C@H](C(=O)N[C@@H](CC(=O)O)C(=O)N[C@@H](CCCCN)C(=O)N[C@@H](CC(=O)O)C(=O)N[C@@H](CCCCN)C(=O)N[C@@H](CC(=O)O)C(=O)N[C@@H](CC(N)=O)C(=O)N[C@H](C(=O)N[C@@H](C)C(=O)N1CCC[C@H]1C(=O)N[C@@H](CCCNC(=N)N)C(=O)N[C@@H](CO)C(=O)N[C@@H](CCCCN)C(=O)N[C@H](C(=O)N[C@@H](CO)C(=O)N1CCC[C@H]1C(=O)N[C@@H](CCC(N)=O)C(=O)NCC(=O)N[C@@H](Cc1ccc(O)cc1)C(N)=O)[C@@H](C)CC)C(C)C)[C@@H](C)O` [AM, Adrenomedullin], the fraction remaining at 1 h in data set [1] came to 9.45%.
On to “20 kDa PEGylated AM ({PEG 20 kDa}-YRQSMNNFQGLRSFGCRFGTCTVQKLAHQIYQFTDKDKDNVAPRSKISPQGY; ends and bridges not checked; UniProt P35318 95-146, looked up) [20 k PEG-AM]”, for which the “Therapeutic effect in colitis” value in the data set on DSS-induced colitis is “significant therapeutic effects”. Besides, in the data set on DSS-induced colitis (previous study), the “Histological analysis of colonic tissue” value is “histological improvements were observed, but were not statistically significant”.
